Data taken from the supplement of paper PMC10307832.

Assays:
Experiment in all cases: relative viability (nuclei count vs DMSO), 5 days (fraction); higher = more cells survive
Seliciclib + Luminespib = compound: CC[C@H](CO)Nc1nc(NCc2ccccc2)c2ncn(C(C)C)c2n1 [Seliciclib] + CCNC(=O)c1noc(-c2cc(C(C)C)c(O)cc2O)c1-c1ccc(CN2CCOCC2)cc1 [Luminespib] (partner 0.01 µM)
Method in brief: (§1)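 The day after seeding in 1536-well plates, lung cancer cell lines were treated by pin tool with a single drug, or with a fixed anchor-drug dose together with five library-drug doses (not always all listed) in √10 steps. After 5 days, a combined fix-and-stain solution (final 0.05% Triton X-100, 1% formaldehyde, 1 ug/ml Hoechst) was added. Nuclei counted on 4× images gave relative viability as treated counts over vehicle counts, reported as the median of duplicate plates.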

Seliciclib + Foretinib = compound: CC[C@H](CO)Nc1nc(NCc2ccccc2)c2ncn(C(C)C)c2n1 [Seliciclib] + COc1cc2c(Oc3ccc(NC(=O)C4(C(=O)Nc5ccc(F)cc5)CC4)cc3F)ccnc2cc1OCCCN1CCOCC1 [Foretinib] (partner 0.25 µM)
Method in brief: as §1

Seliciclib + Dasatinib = compound: CC[C@H](CO)Nc1nc(NCc2ccccc2)c2ncn(C(C)C)c2n1 [Seliciclib] + Cc1nc(Nc2ncc(C(=O)Nc3c(C)cccc3Cl)s2)cc(N2CCN(CCO)CC2)n1 [Dasatinib] (partner 0.075 µM)
Method in brief: as §1

Seliciclib + Decitabine = compound: CC[C@H](CO)Nc1nc(NCc2ccccc2)c2ncn(C(C)C)c2n1 [Seliciclib] + Nc1ncn([C@H]2C[C@H](O)[C@@H](CO)O2)c(=O)n1 [Decitabine] (partner 2 µM)
Method in brief: as §1

Row | Cell Line | relative viability (Seliciclib + Luminespib; first compound 0.08 µM) | relative viability (Seliciclib + Luminespib; first compound 0.253 µM) | relative viability (Seliciclib + Luminespib; first compound 0.8 µM) | relative viability (Seliciclib + Luminespib; first compound 2.53 µM) | relative viability (Seliciclib + Luminespib; first compound 8 µM) | relative viability (Seliciclib + Foretinib; first compound 0.08 µM) | relative viability (Seliciclib + Foretinib; first compound 0.253 µM) | relative viability (Seliciclib + Foretinib; first compound 0.8 µM) | relative viability (Seliciclib + Foretinib; first compound 2.53 µM) | relative viability (Seliciclib + Foretinib; first compound 8 µM) | relative viability (Seliciclib + Dasatinib; first compound 0.08 µM) | relative viability (Seliciclib + Dasatinib; first compound 0.253 µM) | relative viability (Seliciclib + Dasatinib; first compound 0.8 µM) | relative viability (Seliciclib + Dasatinib; first compound 2.53 µM) | relative viability (Seliciclib + Dasatinib; first compound 8 µM) | relative viability (Seliciclib + Decitabine; first compound 0.08 µM) | relative viability (Seliciclib + Decitabine; first compound 0.253 µM) | relative viability (Seliciclib + Decitabine; first compound 0.8 µM) | relative viability (Seliciclib + Decitabine; first compound 2.53 µM) | relative viability (Seliciclib + Decitabine; first compound 8 µM)
1 | NCI-H1666 | 1.01 | 1.08 | 1.04 | 0.968 | 0.778 | 0.97 | 1.04 | 0.987 | 1 | 0.662 | 0.732 | 0.888 | 0.875 | 0.605 | 0.551 | 0.641 | 0.712 | 0.797 | 0.58 | 0.664
2 | NCI-H1734 | 0.186 | 0.199 | 0.181 | 0.159 | 0.222 | 0.809 | 0.702 | 0.802 | 0.793 | 0.738 | 0.488 | 0.426 | 0.493 | 0.295 | 0.335 | 0.503 | 0.405 | 0.509 | 0.518 | 0.496
3 | NCI-H1755 | 0.573 | 0.565 | 0.444 | 0.406 | 0.407 | 0.94 | 0.891 | 1.02 | 0.882 | 0.915 | 0.423 | 0.404 | 0.429 | 0.26 | 0.404 | 0.71 | 0.644 | 0.719 | 0.759 | 0.721
4 | NCI-H1793 | 0.216 | 0.158 | 0.147 | 0.307 | 0.14 | 0.706 | 0.6 | 0.654 | 0.712 | 0.456 | 0.33 | 0.323 | 0.414 | 0.37 | 0.482 | 0.496 | 0.47 | 0.477 | 0.539 | 0.529
5 | NCI-H1915 | 0.756 | 0.765 | 0.785 | 0.853 | 0.653 | 1.09 | 1.15 | 1.05 | 1.09 | 0.815 | 0.354 | 0.303 | 0.277 | 0.288 | 0.283 | 0.252 | 0.264 | 0.277 | 0.243 | 0.255
6 | NCI-H1944 | 0.69 | 0.716 | 0.613 | 0.791 | 0.549 | 0.881 | 0.866 | 0.829 | 0.9 | 0.554 | 0.242 | 0.198 | 0.208 | 0.17 | 0.205 | 0.471 | 0.43 | 0.467 | 0.519 | 0.405
7 | NCI-H1975 | 0.2 | 0.124 | 0.19 | 0.198 | 0.479 | 1 | 0.977 | 0.894 | 0.932 | 0.748 | 0.409 | 0.374 | 0.424 | 0.326 | 0.314 | 0.394 | 0.349 | 0.365 | 0.645 | 0.332
8 | NCI-H1993 | 0.879 | 0.733 | 0.875 | 0.674 | 0.612 | 0.742 | 0.722 | 0.723 | 0.694 | 0.756 | 0.589 | 0.478 | 0.521 | 0.508 | 0.435 | 0.62 | 0.549 | 0.632 | 0.54 | 0.441
9 | NCI-H2009 | 0.998 | 1.13 | 1.07 | 1.01 | 0.943 | 1.21 | 1.24 | 1.22 | 1.18 | 1.27 | 0.322 | 0.376 | 0.307 | 0.233 | 0.288 | 0.378 | 0.42 | 0.402 | 0.371 | 0.415
10 | NCI-H2023 | 0.681 | 0.832 | 0.703 | 0.569 | 0.421 | 0.752 | 0.664 | 0.865 | 0.909 | 0.833 | 0.534 | 0.407 | 0.606 | 0.434 | 0.477 | 0.217 | 0.216 | 0.203 | 0.267 | 0.248
11 | NCI-H2085 | 0.508 | 0.462 | 0.414 | 0.398 | 0.372 | 0.89 | 0.954 | 0.903 | 0.829 | 0.676 | 0.219 | 0.274 | 0.256 | 0.294 | 0.251 | 0.518 | 0.501 | 0.563 | 0.49 | 0.483
12 | NCI-H2087 | 0.192 | 0.188 | 0.158 | 0.193 | 0.231 | 1.16 | 1.05 | 1.04 | 1.07 | 0.816 | 0.874 | 1.07 | 0.898 | 0.704 | 0.754 | 0.284 | 0.313 | 0.247 | 0.227 | 0.221
13 | NCI-H2126 | 0.906 | 0.733 | 0.89 | 0.642 | 0.781 | 1.11 | 1.21 | 1.07 | 0.968 | 0.943 | 0.671 | 0.598 | 0.557 | 0.334 | 0.501 | 0.567 | 0.565 | 0.606 | 0.55 | 0.47
